Laboratory results from ChEMBL document CHEMBL1240388, “Single nucleotide polymorphism analysis of the major tripartite multidrug efflux pump of Escherichia coli: functional conservation in disparate animal reservoirs despite exposure to antimicrobial chemotherapy” (2010).
≈ marks a conversion by molar mass, not a printed value.

Tests used:
[1] = test system: Escherichia coli; assay: Antibacterial activity against Escherichia coli AG102MB harboring pSportI cloning vector
[2] = test system: Escherichia coli; assay: Antibacterial activity against Escherichia coli AG102MB harboring pP10-based acrB gene; type: functional
[3] = test system: Escherichia coli; assay: Antibacterial activity against Escherichia coli AG102MB harboring pS1328-based acrB gene; type: functional
[4] = test system: Escherichia coli; assay: Antibacterial activity against Escherichia coli AG102MB; type: functional
[5] = test system: Escherichia coli; assay: Antibacterial activity against Escherichia coli AG102MB harboring naive acrB gene; type: functional

| SMILES | MIC [1] | MIC [2] | MIC [3] | MIC [4] | MIC [5] |
| --- | --- | --- | --- | --- | --- |
| CC1(C)S[C@@H]2[C@H](NC(=O)[C@H](N)c3ccccc3)C(=O)N2[C@H]1C(=O)O [AMPICILLIN] | > 1020 µg/mL | > 1020 µg/mL | > 1020 µg/mL | 16 µg/mL (≈ 45.8 µM) | > 1020 µg/mL |
| O=C(N[C@H](CO)[C@H](O)c1ccc([N+](=O)[O-])cc1)C(Cl)Cl [CHLORAMPHENICOL] | 4 µg/mL (≈ 12.4 µM) | 32 µg/mL (≈ 99 µM) |  | 2 µg/mL (≈ 6.19 µM) |  |
| C[C@H](CCC(=O)O)[C@H]1CC[C@H]2[C@@H]3[C@H](O)C[C@@H]4C[C@H](O)CC[C@]4(C)[C@H]3C[C@H](O)[C@]12C [CHOLIC ACID] | 4 µg/mL (≈ 9.79 µM) | 8 µg/mL (≈ 19.6 µM) | 16 µg/mL (≈ 39.2 µM) | 4 µg/mL (≈ 9.79 µM) | 8 µg/mL (≈ 19.6 µM) |
| O=C(O)c1cn(C2CC2)c2cc(N3CCNCC3)c(F)cc2c1=O [CIPROFLOXACIN] |  |  |  | 0.063 µg/mL (≈ 0.19 µM) |  |
| CC[C@H]1OC(=O)[C@H](C)[C@@H](O[C@H]2C[C@@](C)(OC)[C@@H](O)[C@H](C)O2)[C@H](C)[C@@H](O[C@@H]2O[C@H](C)C[C@H](N(C)C)[C@H]2O)[C@](C)(O)C[C@@H](C)C(=O)[C@H](C)[C@@H](O)[C@]1(C)O [ERYTHROMYCIN] | 8 µg/mL (≈ 10.9 µM) | 128 µg/mL (≈ 174 µM) | 512 µg/mL (≈ 698 µM) | 4 µg/mL (≈ 5.45 µM) | 128 µg/mL (≈ 174 µM) |
| CC(=O)O[C@H]1C[C@@]2(C)[C@@H](C[C@@H](O)[C@H]3[C@@]4(C)CC[C@@H](O)[C@@H](C)[C@@H]4CC[C@@]32C)/C1=C(\CCC=C(C)C)C(=O)O [FUSIDIC ACID] | 8 µg/mL (≈ 15.5 µM) | > 512 µg/mL | > 512 µg/mL | 16 µg/mL (≈ 31 µM) | > 512 µg/mL |
| CN(C)c1ccc(C(=C2C=CC(=[N+](C)C)C=C2)c2ccc(N(C)C)cc2)cc1.[Cl-] [GENTIAN VIOLET] | 0.5 µg/mL | 4 µg/mL | 4 µg/mL | 0.5 µg/mL | 4 µg/mL |
| CC[n+]1c(-c2ccccc2)c2cc(N)ccc2c2ccc(N)cc21.[Br-] [HOMIDIUM BROMIDE] | 2 µg/mL | 64 µg/mL | 64 µg/mL | 4 µg/mL | 128 µg/mL |
| NC[C@H]1O[C@H](O[C@H]2[C@H](O)[C@@H](O[C@H]3O[C@H](CO)[C@@H](O)[C@H](N)[C@H]3O)[C@H](N)C[C@@H]2N)[C@H](O)[C@@H](O)[C@@H]1O [KANAMYCIN] |  |  |  | > 1020 µg/mL |  |
| CO[C@@H]1[C@@H](OC(N)=O)[C@@H](O)[C@H](Oc2ccc3c(O)c(NC(=O)c4ccc(O)c(CC=C(C)C)c4)c(=O)oc3c2C)OC1(C)C [NOVOBIOCIN] | 8 µg/mL (≈ 13.1 µM) | 512 µg/mL (≈ 836 µM) | 512 µg/mL (≈ 836 µM) | 4 µg/mL (≈ 6.53 µM) | 512 µg/mL (≈ 836 µM) |
| CO[C@H]1C[C@H](O[C@H]2[C@H](C)[C@@H](O[C@@H]3O[C@H](C)C[C@H](N(C)C)[C@H]3O)[C@@H](C)C[C@@]3(CO3)C(=O)[C@H](C)[C@@H](O)[C@@H](C)[C@@H](C)OC(=O)[C@@H]2C)O[C@@H](C)[C@@H]1O [OLEANDOMYCIN] | 64 µg/mL (≈ 93 µM) | > 1020 µg/mL | > 1020 µg/mL | 256 µg/mL (≈ 372 µM) | > 1020 µg/mL |
| CN(C)[C@@H]1C(O)=C(C(N)=O)C(=O)[C@@]2(O)C(O)=C3C(=O)c4c(O)cccc4[C@@](C)(O)[C@H]3C[C@@H]12 [TETRACYCLINE] | 1 µg/mL (≈ 2.25 µM) | 8 µg/mL (≈ 18 µM) | 16 µg/mL (≈ 36 µM) | 1 µg/mL (≈ 2.25 µM) | 8 µg/mL (≈ 18 µM) |
| CC[C@H]1OC(=O)C[C@@H](O)[C@H](C)[C@@H](O[C@@H]2O[C@H](C)[C@@H](O[C@H]3C[C@@](C)(O)[C@@H](O)[C@H](C)O3)[C@H](N(C)C)[C@H]2O)[C@@H](CC=O)C[C@@H](C)C(=O)/C=C/C(C)=C/[C@@H]1CO[C@@H]1O[C@H](C)[C@@H](O)[C@@H](OC)[C@H]1OC [TYLOSIN] | 16 µg/mL (≈ 17.5 µM) | 1020 µg/mL (≈ 1120 µM) | > 1020 µg/mL | 128 µg/mL (≈ 140 µM) | 1020 µg/mL (≈ 1120 µM) |
